The values that follow come from ChEMBL document CHEMBL1133583, “Design of cancer-specific antitumor agents based on aziridinylcyclopent[b]indoloquinones” (J Med Chem, 2000).

Holding throughout (assay type): functional
One experiment concerns Breast carcinoma cell. The experiment is described as follows: In vitro cytotoxicity against breast cancer cells. The settings on record: Homo sapiens.
In a further experiment the test system is Prostatic carcinoma cell. The experiment is described as follows: In vitro cytotoxicity against prostate cancer cells. The settings on record: Homo sapiens, read-out: Log LC50 (the source's name) (converted).
The subject of a further experiment is Colon carcinoma cell. The experiment is described as follows: In vitro cytotoxicity against colon cancer cells. The conditions noted are these: Homo sapiens.
For another experiment, the system named is CNS carcinoma cell. The experiment is described as follows: In vitro cytotoxicity against CNS cancer cells. The conditions noted are these: Homo sapiens.
The subject of another experiment is Ovarian carcinoma cell. The experiment is described as follows: In vitro cytotoxicity against ovarian cancer cells. The conditions noted are these: Homo sapiens.
The nature of experiment [1]: In vitro cytotoxicity against Leukemia cancer cells. The settings on record: Homo sapiens, Cancer cell lines.
In another experiment the test system is Renal cancer cell line. The experiment is described as follows: (§1) In vitro cytotoxicity against renal cancer cells. The conditions noted are these: Homo sapiens, read-out: Log LC50 (the source's name) (converted).
For the next experiment, the species on record is Homo sapiens. The experiment is described as follows: In vitro cytotoxicity against non-small-cell lung cancer cells. The settings on record: Cancer cell lines, read-out: Log LC50 (the source's name) (converted).
The next experiment has as its system Melanoma cell. The experiment is described as follows: In vitro cytotoxicity against melanoma cancer cells. The settings on record: Homo sapiens.
Experiment [2] is described as follows: as §1. The conditions noted are these: Homo sapiens, Cancer cell lines; read-out: Log LC50 (the source's name) (converted).

As usually defined, the LC50 is the concentration lethal to half of the exposed cells or organisms. A high value points to a less lethal substance. The compound `CC(=O)OC1CCc2c3c(n(C(C)=O)c21)C(=O)C(N1CC1)=C(C)C3=O` (stereo not drawn) showed an LC50 (concentration killing 50% of cells) with Breast carcinoma cell of 31.6 µM. Besides, the CC50 was 19.5 µM in the experiment with Prostatic carcinoma cell, 16.6 µM in the experiment on Renal cancer cell line and 38 µM in the experiment listed under Homo sapiens. In the experiment with Colon carcinoma cell, the LC50 (50% lethal concentration) is 17 µM. In addition, the 50% lethal concentration (LC50) was 17.8 µM with CNS carcinoma cell, 66.1 µM in the experiment on Ovarian carcinoma cell and 8.71 µM in the experiment on Melanoma cell. In addition, in experiment [1], the LC50 (lethal concentration 50%) is greater than 100 µM.

In turn, `COC1CCc2c1[nH]c1c2C(=O)C(C)=C(N2CC2)C1=O` (stereo not drawn) showed an LC50 (concentration killing 50% of cells) in the experiment with Breast carcinoma cell of 46.8 µM. Besides, the CC50 with Prostatic carcinoma cell is 34.7 µM; in experiment [2], 26.3 µM; in the experiment listed under Homo sapiens, 63.1 µM. In the experiment with Colon carcinoma cell, the LC50 (50% lethal concentration) was 47.9 µM. For the same compound, the LC50 in the experiment with CNS carcinoma cell is 67.6 µM; in the experiment on Ovarian carcinoma cell it was greater than 100 µM; in the experiment on Melanoma cell, 12 µM. Moreover, the LC50 (lethal concentration 50%) in [1] was 87.1 µM.

Take `CC(=O)OC1CCc2c1[nH]c1c2C(=O)C(C)=C(N2CC2)C1=O` (stereo not drawn): in the experiment with Breast carcinoma cell, the LC50 (concentration killing 50% of cells) was 29.5 µM. Besides, the figures for the CC50 in the experiment with Prostatic carcinoma cell, with Renal cancer cell line and in the experiment listed under Homo sapiens were 23.4 µM, 19.1 µM and 22.4 µM, respectively. Also, the LC50 (50% lethal concentration) in the experiment with Colon carcinoma cell was 14.1 µM. Further, the results for the LC50 in the experiment with CNS carcinoma cell, in the experiment on Ovarian carcinoma cell and in the experiment with Melanoma cell were 20 µM, 39.8 µM and 10.2 µM, respectively. In [1], this compound gave an LC50 (lethal concentration 50%) of 50.1 µM.

In the case of `CC1=C(N2CC2)C(=O)c2c([nH]c(C)c2C)C1=O`, the CC50 is greater than 100 µM in the experiment with Prostatic carcinoma cell, greater than 100 µM in [2] and 51.3 µM in the experiment listed under Homo sapiens.

In the experiment on Breast carcinoma cell, `CC(=O)OCc1[nH]c2c(c1C)C(=O)C(N1CC1)=C(C)C2=O` gave an LC50 (concentration killing 50% of cells) of 26.9 µM. Further, the CC50 in the experiment on Prostatic carcinoma cell was 9.77 µM; with Renal cancer cell line it was 28.8 µM; in the experiment listed under Homo sapiens it was 33.1 µM. The compound further showed an LC50 (50% lethal concentration) in the experiment with Colon carcinoma cell of 8.32 µM. For the same compound, the figures for the LC50 in the experiment with CNS carcinoma cell, with Ovarian carcinoma cell and in the experiment with Melanoma cell were 14.8 µM, 34.7 µM and 2.29 µM, respectively. The same compound showed an LC50 (lethal concentration 50%) in experiment [1] greater than 100 µM.

As to `CC1=C(N2CC2)C(=O)c2[nH]c(C)c(C)c2C1=O`, the LC50 (concentration killing 50% of cells) with Breast carcinoma cell was greater than 100 µM. In addition, the CC50 is greater than 100 µM in the experiment with Prostatic carcinoma cell, greater than 100 µM in the experiment with Renal cancer cell line and 50.1 µM in the experiment filed under Homo sapiens. Moreover, the LC50 (50% lethal concentration) with Colon carcinoma cell was 89.1 µM. For the same compound, the LC50 in the experiment on CNS carcinoma cell was greater than 100 µM; with Ovarian carcinoma cell, greater than 100 µM; with Melanoma cell, 70.8 µM. The LC50 (lethal concentration 50%) in experiment [1] is greater than 100 µM.

Turning to `CC1=C(N2CC2)C(=O)c2[nH]c(CO)c(C)c2C1=O`, in the experiment with Breast carcinoma cell, the LC50 (concentration killing 50% of cells) is 89.1 µM. In addition, the CC50 with Prostatic carcinoma cell was 63.1 µM; in experiment [2], 58.9 µM; in the experiment filed under Homo sapiens, 79.4 µM. In addition, the LC50 (50% lethal concentration) in the experiment on Colon carcinoma cell is 63.1 µM. Moreover, the LC50 in the experiment on CNS carcinoma cell was 89.1 µM; in the experiment on Ovarian carcinoma cell, greater than 100 µM; in the experiment with Melanoma cell it was 39.8 µM. This compound showed an LC50 (lethal concentration 50%) in experiment [1] greater than 100 µM.

Consider `CC1=C(N2CC2)C(=O)c2[nH]c3c(c2C1=O)CCC3=O`, for which the LC50 (concentration killing 50% of cells) in the experiment with Breast carcinoma cell is 12.6 µM. In addition, the CC50 in the experiment with Prostatic carcinoma cell is 15.8 µM; in the experiment with Renal cancer cell line it was 4.57 µM; in the experiment listed under Homo sapiens it was 4.27 µM. In the experiment with Colon carcinoma cell, this compound showed an LC50 (50% lethal concentration) of 3.63 µM. The LC50 with CNS carcinoma cell is 7.41 µM; with Ovarian carcinoma cell, 13.8 µM; in the experiment with Melanoma cell, 1.02 µM. In experiment [1], this compound gave an LC50 (lethal concentration 50%) greater than 100 µM.

On to `CC(=O)OCc1[nH]c2c(c1C)C(=O)C(C)=C(N1CC1)C2=O`, for which the LC50 (concentration killing 50% of cells) in the experiment with Breast carcinoma cell is greater than 100 µM. Moreover, the CC50 was greater than 100 µM in the experiment on Prostatic carcinoma cell, 72.4 µM in [2] and 79.4 µM in the experiment filed under Homo sapiens. This compound had an LC50 (50% lethal concentration) with Colon carcinoma cell greater than 100 µM. Besides, the 50% lethal concentration (LC50) was greater than 100 µM in the experiment with CNS carcinoma cell, greater than 100 µM in the experiment on Ovarian carcinoma cell and 70.8 µM in the experiment with Melanoma cell. The compound further showed an LC50 (lethal concentration 50%) in experiment [1] greater than 100 µM.

In the experiment on Breast carcinoma cell, `CC1=C(N2CC2)C(=O)c2[nH]c3c(c2C1=O)CCC3O` (stereo not drawn) gave an LC50 (concentration killing 50% of cells) of 33.9 µM. The results for the CC50 (with Prostatic carcinoma cell; in experiment [2]; in the experiment listed under Homo sapiens) were 31.6 µM, 18.6 µM and 60.3 µM, respectively. In the experiment on Colon carcinoma cell, this compound gave an LC50 (50% lethal concentration) of 35.5 µM. Also, the values for the LC50 in the experiment on CNS carcinoma cell, with Ovarian carcinoma cell and in the experiment with Melanoma cell were 28.8 µM, 89.1 µM and 14.1 µM, respectively. Besides, the LC50 (lethal concentration 50%) in experiment [1] is 87.1 µM.

`CC1=C(N2CC2)C(=O)c2c([nH]c(CO)c2C)C1=O` had an LC50 (concentration killing 50% of cells) with Breast carcinoma cell of 27.5 µM. Moreover, the CC50 in the experiment on Prostatic carcinoma cell is 16.6 µM; with Renal cancer cell line it was 29.5 µM; in the experiment listed under Homo sapiens it was 42.7 µM. Further, the LC50 (50% lethal concentration) in the experiment on Colon carcinoma cell was 47.9 µM. In addition, the LC50 is greater than 100 µM in the experiment with CNS carcinoma cell, greater than 100 µM in the experiment with Ovarian carcinoma cell and 4.07 µM with Melanoma cell. The compound further showed an LC50 (lethal concentration 50%) in experiment [1] greater than 100 µM.
